The assay addresses T1, HsOMT (Hpm5) (Hypomyces subiculosus, UniProt B3FWS1).
T1 sequence (B3FWS1 1-398): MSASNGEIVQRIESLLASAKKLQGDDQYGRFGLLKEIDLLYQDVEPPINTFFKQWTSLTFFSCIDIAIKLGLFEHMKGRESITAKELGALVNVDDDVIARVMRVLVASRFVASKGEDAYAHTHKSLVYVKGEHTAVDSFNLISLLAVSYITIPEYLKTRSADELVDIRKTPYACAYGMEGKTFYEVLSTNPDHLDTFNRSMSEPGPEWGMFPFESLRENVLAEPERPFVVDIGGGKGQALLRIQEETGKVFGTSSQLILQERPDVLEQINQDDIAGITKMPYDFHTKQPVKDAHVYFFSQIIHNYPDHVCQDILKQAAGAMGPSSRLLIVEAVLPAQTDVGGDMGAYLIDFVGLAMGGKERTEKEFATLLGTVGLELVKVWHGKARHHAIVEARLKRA
The assay is described as follows: biocatalytic O-methylation in S. cerevisiae expressing HsOMT, LC-MS. It counts as cell-based. As to conditions: native substrate; OH-5 (para) methylation to 5-O-methyl-DHZ.

`C[C@H]1C/C=C/[C@@H](O)CCC/C=C/c2cc(O)cc(O)c2C(=O)O1` [compound 3, DHZ]: the “biocatalytic O-methylation in S. cerevisiae expressing HsOMT, LC-MS” value was “methylates the C-5 phenolic hydroxyl of the RAL14”.
